Here are results for 38 molecules from patent publication US6949556B2, “Acylated 1,2,3,4-tetrahydronaphthyl amines and their use as pharmaceutical agents” (Aventis Pharma Deutschland GmbH, priority 2001, dated 2005).

This test has as its target eNOS promoter. As to the kind of experiment: Activation of eNOS transcription (eNOS promoter firefly luciferase reporter). In kind it is cell-based. The settings on record: EC50 of transcription induction ratio (TIR) vs compound concentration, determined graphically; stably transfected human endothelial cell line, 18 h incubation. The method, then: Activation of eNOS transcription was measured as described in detail in Li et al. “Activation of protein kinase C alpha and/or epsilon enhances transcription of the human endothelial nitric oxide synthase gene”, Mol. Pharmacol. 1998; 53: 630-637. Briefly, a 3.5 kB long fragment 5′ of the starting codon of the eNOS gene was cloned, sequenced and cloned in firefly luciferase expression plasmids to monitor activation of the eNOS promoter by reporter gene activity. A human endothelial cell line stable transfected and expressing this promoter-reporter construct was used for compound testing. Cells were incubated for 18 h with compounds.
All compounds were dissolved in sterile DMSO. A final concentration of 0.5% DMSO in complete medium was allowed. Induction of reporter gene expression in these cells was measured using a standard luciferase assay system (Promega, Cat. No E150) according to the manufacturer's instructions. Luciferase induction in cells incubated with compounds were compared to those incubated with solvent alone. The ratio of both activities (transcription induction ratio, TIR) was plotted as a function of compound concentration. Typically, TIR values started at low concentrations at a ratio of 1, indicating no compound effect, and extended up to a maximum TIR value TIR(max) which indicates the increase of the eNOS transcription. EC50 values of transcription induction ratios as a function of compound concentration were determined graphically.
On the technique in general: A reporter such as luciferase makes a cellular process visible.

A word on the EC50: it is the concentration giving half of the maximal effect. Consider `O=C(N[C@@H]1CCc2ccccc2C1)c1cnn(-c2ccc(Cl)cc2)c1C(F)(F)F` [Compound 33, 1-(4-Chloro-phenyl)-5-trifluoromethyl-1H-pyrazole-4-carboxylic acid N-(R)-(1,2,3,4-tetrahydro-naphthalen-2-yl)-amide], for which the EC50 was found to be 7 µM. For the molecule `Cc1nc(C(F)(F)F)c(C(=O)N[C@@H]2CCc3ccccc3C2)s1` [Compound 45, 2-Methyl-4-trifluoromethyl-thiazole-5-carboxylic acid N-(R)-(1,2,3,4-tetrahydro-naphthalen-2-yl)-amide], the EC50 was 0.29 µM. Next, `O=C(N[C@@H]1CCc2ccccc2C1)c1ccc(Cl)nc1` [Compound 14, 6-Chloro-N-(R)-1,2,3,4-tetrahydro-naphthalen-2-yl-nicotinamide]: 5.93 µM; `Cc1ccc(C(=O)N[C@@H]2CCc3ccccc3C2)cn1` [Compound 19, 6-Methyl-N-(R)-1,2,3,4-tetrahydro-naphthalen-2-yl-nicotinamide]: 10.9 µM. Turning to `Cc1nc(-c2ccccc2)sc1C(=O)N[C@@H]1CCc2ccccc2C1` [Compound 41, 4-Methyl-2-phenyl-thiazole-5-carboxylic acid N-(R)-(1,2,3,4-tetrahydro-naphthalen-2-yl)-amide], the EC50 is 20.4 µM. Next, `O=C(N[C@@H]1CCc2ccccc2C1)c1ccc(C(F)(F)F)nc1` [Compound 50, N-(R)-1,2,3,4-Tetrahydro-naphthalen-2-yl-6-trifluoromethyl-nicotinamide]: 24.6 µM; `Cc1cnc(C(=O)N[C@@H]2CCc3ccccc3C2)cn1` [Compound 35, 5-Methyl-pyrazine-2-carboxylic acid N-(R)-(1,2,3,4-tetrahydro-naphthalen-2-yl)-amide]: 14.9 µM; `O=C(N[C@H]1CCc2ccccc2C1)c1ccncc1` [Compound 69, (S)-N-(1,2,3,4-Tetrahydro-naphthalen-2-yl)-isonicotinamide]: 0.19 µM. Next, `COc1cccc2c1CC[C@H](NC(=O)c1ccc(F)cc1)C2` [Compound 7, (S)-N-(5-Methoxy-1,2,3,4-tetrahydro-naphth-2-yl)-4-fluoro-benzamide]: 6 µM. To `O=C(N[C@H]1CCc2ccccc2C1)c1ccc(C(F)(F)F)nc1` [Compound 51, N-(S)-1,2,3,4-Tetrahydro-naphthalen-2-yl-6-trifluoromethyl-nicotinamide] belongs 1.6 µM; to `O=C(N[C@@H]1CCc2ccccc2C1)c1cc2sccc2nc1C(F)(F)F` [Compound 47, 5-Trifluoromethyl-thieno[3,2-b]pyridine-6-carboxylic acid-N-(R)-(1,2,3,4-tetrahydro-naphthalen-2-yl)-amide], 35.2 µM; to `O=C(N[C@@H]1CCc2ccccc2C1)c1onc2ccccc12` [Compound 64, Benzo[c]isoxazole-3-carboxylic acid N-(R)-(1,2,3,4-tetrahydro-naphthalen-2-yl)-amide], 15.2 µM. With `CCCc1c(C(=O)N[C@H]2CCc3ccccc3C2)cnn1-c1cc(Cl)cc(Cl)c1` [Compound 67, 1-(3,5-Dichloro-phenyl)-5-propyl-1H-pyrazole-4-carboxylic acid N-(S)-(1,2,3,4-tetrahydro-naphthalen-2-yl)-amide], the EC50 is 23.5 µM. Next, `O=C(N[C@@H]1CCc2ccccc2C1)c1ccc2[nH]nnc2c1` [Compound 25, 1H-Benzotriazole-5-carboxylic acid N-(R)-(1,2,3,4-tetrahydro-naphthalen-2-yl)-amide]: 4.55 µM.

On to `N#Cc1ccc(C(=O)N[C@H]2CCc3ccccc3C2)cn1` [Compound 57, 6-Cyano-N-(S)-1,2,3,4-tetrahydro-naphthalen-2-yl-nicotinamide], for which the EC50 came to 0.5 µM. As to `COc1cccc2c1CC[C@@H](NC(=O)c1ccc(F)cc1)C2` [Compound 6, (R)-N-(5-Methoxy-1,2,3,4-tetrahydro-naphth-2-yl)-4-fluoro-benzamide], the EC50 came to 1.5 µM. Next, `O=C(N[C@@H]1CCc2ccccc2C1)c1ccc2cc[nH]c2c1` [Compound 48, 1H-Indole-6-carboxylic acid N-(R)-(1,2,3,4-tetrahydro-naphthalen-2-yl)-amide]: 15.6 µM; `CN(C)c1cccc(C(=O)N[C@@H]2CCc3ccccc3C2)c1` [Compound 10, 3-Dimethylamino-N-(R)-1,2,3,4-tetrahydro-naphthalen-2-yl-benzamide]: 9.56 µM; `Cc1nc(C(F)(F)F)ccc1C(=O)N[C@H]1CCc2ccccc2C1` [Compound 55, 2-Methyl-N-(S)-1,2,3,4-tetrahydro-naphthalen-2-yl-6-trifluoromethyl-nicotinamide]: 1.1 µM.

Turning to `Cc1c(C(=O)N[C@@H]2CCc3ccccc3C2)cnn1-c1ccccc1` [Compound 31, 5-Methyl-1-phenyl-1H-pyrazole-4-carboxylic acid N-(R)-(1,2,3,4-tetrahydro-naphthalen-2-yl)-amide], the EC50 came out at 10.9 µM. To `Cc1c(C(=O)N[C@H]2CCc3ccccc3C2)cnn1-c1ccccc1` [Compound 32, 5-Methyl-1-phenyl-1H-pyrazole-4-carboxylic acid N-(S)-(1,2,3,4-tetrahydro-naphthalen-2-yl)-amide] belongs 1.13 µM.

Regarding `Cc1nc(C(F)(F)F)c(C(=O)N[C@H]2CCc3ccccc3C2)s1` [Compound 46, 2-Methyl-4-trifluoromethyl-thiazole-5-carboxylic acid-N-(S)-(1,2,3,4-tetrahydro-naphthalen-2-yl)-amide], the EC50 worked out at 0.41 µM. For the molecule `CCCc1c(C(=O)N[C@@H]2CCc3ccccc3C2)cnn1-c1cc(Cl)cc(Cl)c1` [Compound 66, 1-(3,5-Dichloro-phenyl)-5-propyl-1H-pyrazole-4-carboxylic acid N-(R)-(1,2,3,4-tetrahydro-naphthalen-2-yl)-amide], the EC50 worked out at 5.86 µM. As to `Cc1cc(C)c(C(=O)N[C@@H]2CCc3ccccc3C2)c(N)n1` [Compound 43, 2-Amino-4,6-dimethyl-N-(R)-1,2,3,4-tetrahydro-naphthalen-2-yl-nicotinamide], the EC50 stood at 20.6 µM.

With `CN(C)c1cccc(C(=O)N[C@H]2CCc3ccccc3C2)c1` [Compound 11, 3-Dimethylamino-N-(S)-1,2,3,4-tetrahydro-naphthalen-2-yl-benzamide], the EC50 worked out at 12.8 µM. In the case of `O=C(N[C@@H]1CCc2ccccc2C1)c1cncc(-c2cccs2)c1` [Compound 62, N-(R)-1,2,3,4-Tetrahydro-naphthalen-2-yl-5-thiophen-2-yl-nicotinamide], the EC50 came to 4.47 µM. For the molecule `Cc1cnc(C(=O)N[C@H]2CCc3ccccc3C2)cn1` [Compound 36, 5-Methyl-pyrazine-2-carboxylic acid N-(S)-(1,2,3,4-tetrahydro-naphthalen-2-yl)-amide], the EC50 is 0.33 µM.

Turning to `O=C(N[C@@H]1CCc2cccc(Br)c2C1)c1ccc(F)cc1` [Compound 4, (R)-N-(8-Bromo-1,2,3,4-tetrahydro-naphth-2-yl)-4-fluoro-benzamide], the EC50 was above 30 µM. To `Cc1ccc(C(=O)N[C@@H]2CCc3ccccc3C2)c(Cl)n1` [Compound 39, 2-Chloro-6-methyl-N-(R)-1,2,3,4-tetrahydro-naphthalen-2-yl-nicotinamide] belongs 28.3 µM; to `Nc1ncccc1C(=O)N[C@@H]1CCc2ccccc2C1` [Compound 17, 2-Amino-N-(R)-1,2,3,4-tetrahydro-naphthalen-2-yl-nicotinamide], 1.96 µM; to `O=C(NC1CCc2ccccc2C1)c1ccc(F)cc1` (centres unmarked) [Compound 1, 4-Fluoro-N-(1,2,3,4-tetrahydro-naphth-2-yl)-benzamide], 2.2 µM. For `COc1ccc(-n2ncc(C(=O)N[C@@H]3CCc4ccccc4C3)c2C)cc1` [Compound 60, 1-(4-Methoxy-phenyl)-5-methyl-1H-pyrazole-4-carboxylic acid N-(R)-(1,2,3,4-tetrahydro-naphthalen-2-yl)-amide], the EC50 worked out at 4.12 µM. Next, `Cc1nc(C)c(C(=O)N[C@H]2CCc3ccccc3C2)s1` [Compound 30, 2,4-Dimethyl-thiazole-5-carboxylic acid N-(S)-(1,2,3,4-tetrahydro-naphthalen-2-yl)-amide]: 81.8 µM. To `O=C(N[C@H]1CCc2ccccc2C1)c1cnn(-c2ccc(Cl)cc2)c1C(F)(F)F` [Compound 34, 1-(4-Chloro-phenyl)-5-trifluoromethyl-1H-pyrazole-4-carboxylic acid N-(S)-(1,2,3,4-tetrahydro-naphthalen-2-yl)-amide] belongs 9.97 µM; to `O=C(N[C@H]1CCc2ccccc2C1)c1cncc(-c2cccs2)c1` [Compound 63, N-(S)-1,2,3,4-Tetrahydro-naphthalen-2-yl-5-thiophen-2-yl-nicotinamide], 0.3 µM; to `O=C(N[C@H]1CCc2ccccc2C1)c1ccc2[nH]nnc2c1` [Compound 26, 1H-Benzotriazole-5-carboxylic acid N-(S)-(1,2,3,4-tetrahydro-naphthalen-2-yl)-amide], 15.1 µM. Next, `Cc1ccc(C(=O)N[C@H]2CCc3ccccc3C2)cn1` [Compound 20, 6-Methyl-N-(S)-1,2,3,4-tetrahydro-naphthalen-2-yl-nicotinamide]: 24.7 µM. With `Cc1nc(-c2ccccc2)sc1C(=O)N[C@H]1CCc2ccccc2C1` [Compound 42], the EC50 was 16 µM.
